Patent US10195212B2, “Glucocorticoid-loaded nanoparticles for prevention of corneal allograft rejection and neovascularization” (The Johns Hopkins University, priority 2014, dated 2019)
Where a name gives a salt, the structure may show the parent alone.

Columns and labels:
[1] = hydrocortisone = 1; cited from earlier work
[2] = In vivo ocular DSP levels after SC injection ([3H]-labeled DSP); parameters: species or system Sprague Dawley rat
Description: Nanoparticles were suspended in saline at 20 μCi/mL. […] 40 μL (˜0.8 μCi per eye) of same formulation was injected to both eyes of the same animal (Sprague Dawley rat). At the indicated time intervals, 2 h, 1 day, 3 day, 5 day and 7 day after injection, the rats were anesthetized by intramuscular injection of ketamine/xylazine solution. The animal was sacrificed after collecting two drops of blood from the tail vein.
The eye ball with conjunctiva tissue was carefully removed from rats and rinsed with PBS, dried by Kimwipe tissue. The anterior chamber humor, cornea, vitreous, retina and the remaining eye ball tissue were carefully dissected and collected. Both cornea and retina tissues were rinsed with PBS and dried with Kimwipe tissue. All the samples were weighed, dissolved with 2 mL of Solvable by incubation at 50° C. overnight. Blood samples were bleached with 0.2 ml H2O2 and 20 μL, 0.5M EDTA. 10 ml […] scintillation medium was added before counting the radioactivity in a scintillation counter. The results were expressed as a percentage of the injected dose and are the mean±sd of four eyes (2 animals) per data point. […] Total percentage of injected dose at the periocular tissue and the radioactivity per mg (or mL) of tissue were calculated.
Fifty μL (˜0.8 per eye) of the same formulation was administered to both eyes of the same animal (Sprague Dawley rat) through SC injection. At POD14, the rats under anesthesia were sacrificed after collecting two drops of blood from the tail vein. The aqueous, vitreous, and the remaining ocular tissues containing injection sites were carefully dissected and collected. All the samples were weighed and then dissolved with 2 mL of Solvable (Perkin Elmer, Waltham, Mass.) by incubation at 50° C. overnight. Blood samples were bleached with 0.2 mL H2O2 and 20 μL 0.5M EDTA. Ten milliliters of Ultima gold scintillation medium (Perkin Elmer, Waltham, Mass.) was added before counting the radioactivity in a scintillation counter (Perkin Elmer, Waltham, Mass.). The results were expressed as a percentage of the injected dose and are the mean±standard deviation (SD) of four eyes per data point. […] The total percentage of the injected dose at the injection sites and the radioactivity per mg of tissue or mL of blood were calculated.

[3] = test system: transplanted corneal grafts; assay: Corneal allograft rejection after penetrating keratoplasty, weekly SC injection; type: in vivo, Lewis rats; conditions: for survival rate of cornea grafts: weekly SC 50 μL at 1 mg DSP/mL
Description: All procedures performed with rats were approved by the Johns Hopkins University Animal Care and Use Committee. The Brown-Norway donor rats were sacrificed and the central corneal button of both eyes were removed with a 4.0-mm trephine and kept in physiological solution ready for use. The surgery was performed by a corneal surgeon (QP) under an operating microscope. The cornea recipient Lewis rats were anesthetized with an intramuscular injection of a mixture of Ketamine (80 mg/kg) and Xylazine (8 mg/kg). Repeated instillations of 0.5% tropicamide eye drops were used on Lewis rats for total pupil dilation before surgery. A paracentesis was performed before trephinization, and the anterior chamber was filled with hyaluronic acid. The corneal buttons were removed from the receptor Lewis rats with a 3.5-mm trephine. The donor corneal button was sutured to receptor cornea with 8 suture points.
All groups of animals were undertaken same treatment once every week until the failure of grafts or the end point of study (9 week).
The clinical observations with a slit lamp microscope were performed by two ophthalmologists (QP and LT) on post-operational (PO) 2 week for group 1 and group 2, PO 4 week for group 3 and PO 9 week for group 4. Three parameters were evaluated for the examination of the corneal grafts (cornea transparency, edema and neovascularization). The scoring for the parameters is presented below.
Intraocular pressure was monitored at PO 2 day, 1 week, 2 week, 4 week, 6 week, 8 week and 9 week after the surgery. IOP recorded for each eye is the average of three successful measurements. Animals at the end time points were sacrificed by CO2 and the eyes with PK surgery were enucleated. Eye tissues were fixed with 10% formalin for 24 h before embedding in paraffin. Sections (5 μm) were cut from through the direction of optical nerve and cornea, and stained with H&E.

CC(=O)OCC(=O)[C@@]1(O)[C@H](C)C[C@H]2[C@@H]3C=C(C)C4=Cc5c(cnn5-c5ccccc5)C[C@]4(C)[C@H]3[C@@H](O)C[C@@]21C [Cortivazol]
Relative Potency of Glucocorticoid [1]: 50

C[C@@H]1C[C@H]2[C@@H]3CCC4=CC(=O)C=C[C@]4(C)[C@@]3(F)[C@@H](O)C[C@]2(C)[C@@]1(O)C(=O)COP(=O)(O)O [DSP, Dexamethasone 21-phosphate sodium salt]
DSP level in blood ([2]; PO 2 h, SC injection): ≤ 350 ng DSP per ml
total dose retained at the conjunctiva tissue ([2]; PO 2 h, single SC injection, ~0.08 mg DSP): Approximately 0.4%
DSP in anterior chamber and vitreous ([2]; PO 7 day after SC administration): not detectable
DSP at the conjunctiva tissue ([2]; PO day 1, single SC injection): almost no DSP can be detected
DSP levels at retina and cornea ([2]; SC injection): very low
time to clearance after SC injection ([2]; rat, in vivo, sc): up to 2 hours
survival rate of cornea grafts ([3]; PO 2 week): 100%
survival rate of cornea grafts ([3]; PO 3 week): 80%
histological examination of cornea tissues at end point ([3]; PO 4 week for DSP, PO 9 week for DSP-NP): swollen and thicker than the normal healthy cornea
time at which all grafts were rejected ([3]; PO, weekly SC injection): 4 week
cornea transparency (clinical observation) ([3]; weekly SC injection): as opaque as saline control and NP control groups
graft neovascularization (clinical observation) ([3]; weekly SC injection, versus control groups): less neovascularization
graft edema (clinical observation) ([3]; weekly SC injection, versus saline and NP control): significant less edema

C[C@]12CCC(=O)C=C1CC[C@@H]1[C@@H]2[C@@H](O)C[C@@]2(C)[C@H]1CC[C@]2(O)C(=O)CO [Hydrocortisone]
Relative Potency of Glucocorticoid [1]: 1

C[C@]12C=CC(=O)C=C1CC[C@@H]1[C@@H]2[C@@H](O)C[C@@]2(C)[C@H]1CC[C@]2(O)C(=O)CO [Prednisolone]
Relative Potency of Glucocorticoid [1]: 4

C[C@]12C=CC(=O)C=C1CC[C@H]1[C@@H]3C[C@@H](O)[C@](O)(C(=O)CO)[C@@]3(C)C[C@H](O)[C@@]12F [Triamcinolone]
Relative Potency of Glucocorticoid [1]: 5
